Laboratory results reported in patent publication US12384808B2, “Modulators of TNF-α activity” (Forward Therapeutics, Inc., priority 2022, dated 2025).

Target: TNFα (Homo sapiens, UniProt P01375)
Assay: TNFα Induced HEK Blue Cellular Assay
Format: cell-based
Conditions: HEK Blue TNFα reporter cells, TNFα 100 pg/ml, 24 hrs at 37° C., secreted alkaline phosphatase (QUANTI-Blue) read at 620 nm; read-out: IC50 value
Method in brief: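 IC50 fitted with a 4-parameter logistic model from % inhibition, normalised to DMSO controls with and without stimulation. Readout: QUANTI-Blue SEAP at 620 nm after 24 h, 37 °C exposure to TNFα (100 pg/ml final) and test compound at […]–0.5 nM final.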

Chain of TNFα (P01375 77-233 limits assumed): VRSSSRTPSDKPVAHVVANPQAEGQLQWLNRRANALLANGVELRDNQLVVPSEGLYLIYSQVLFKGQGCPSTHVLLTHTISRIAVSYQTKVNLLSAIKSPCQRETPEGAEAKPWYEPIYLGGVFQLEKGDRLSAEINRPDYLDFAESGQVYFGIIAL

IC50 | SMILES
< 100 nM | [2H]C([2H])([2H])N1C(=O)c2cccc(OC(F)F)c2[C@H]2C[C@@H]1c1nc3ccc(-c4cc(F)c(P(C)(C)=O)cc4OC)cc3n12 [Example 130, (7R,14R)-1-(difluoromethoxy)-11-(4-(dimethylphosphoryl)-5-fluoro-2-methoxyphenyl)-6-(methyl-d3)-6,7-dihydro-7,14-methanobenzo[f]benzo[4,5]imidazo[1,2-a][1,4]diazocin-5(14H)-one]
< 100 nM | [2H]C([2H])([2H])N1C(=O)c2cccc(OC(F)F)c2[C@H]2C[C@@H]1c1nc3ccc(-c4cnc(P(C)(C)=O)c(F)c4)cc3n12 [Example 124, (7R,14R)-1-(difluoromethoxy)-11-(6-(dimethylphosphoryl)-5-fluoropyridin-3-yl)-6-(methyl-d3)-6,7-dihydro-7,14-methanobenzo[f]benzo[4,5]imidazo[1,2-a][1,4]diazocin-5(14H)-one]
< 100 nM | [2H]C([2H])([2H])N1C(=O)c2cccc(OC(F)F)c2[C@H]2C[C@@H]1c1nc3ccc(-c4ccc(CP(C)(C)=O)cc4F)cc3n12 [Example 67, (7R,14R)-1-(difluoromethoxy)-11-(4-((dimethylphosphoryl)methyl)-2-fluorophenyl)-6-(methyl-d3)-6,7-dihydro-7,14-methanobenzo[f]benzo[4,5]imidazo[1,2-a][1,4]diazocin-5(14H)-one]
< 100 nM | [2H]C([2H])([2H])N1C(=O)c2cccc(OC(F)F)c2[C@H]2C[C@@H]1c1nc3c(F)cc(-c4ccc(P(C)(C)=O)c(F)c4)cc3n12 [Example 135, (7R,14R)-1-(difluoromethoxy)-11-(4-(dimethylphosphoryl)-3-fluorophenyl)-9-fluoro-6-(methyl-d3)-6,7-dihydro-7,14-methanobenzo[f]benzo[4,5]imidazo[1,2-a][1,4]diazocin-5(14H)-one]
< 100 nM | [2H]C([2H])([2H])N1C(=O)c2cccc(OC(F)F)c2[C@H]2C[C@@H]1c1nc3ccc(-c4ccc(C(C)P(C)(C)=O)cc4)cc3n12 (single isomer, unassigned) [Example 85, (7R,14R)-1-(difluoromethoxy)-11-(4-((S or R)-1-(dimethylphosphoryl)ethyl)phenyl)-6-(methyl-d3)-6,7-dihydro-7,14-methanobenzo[f]benzo[4,5]imidazo[1,2-a][1,4]diazocin-5(14H)-one]
10000 to 30000 nM | [2H]C([2H])([2H])N1C(=O)c2cccc(OC(F)F)c2[C@H]2C[C@@H]1c1nc3ccc(-c4cc(N)c(P(C)(C)=O)c(F)c4)cc3n12 [Example 131, (7R,14R)-11-(3-amino-4-(dimethylphosphoryl)-5-fluorophenyl)-1-(difluoromethoxy)-6-(methyl-d3)-6,7-dihydro-7,14-methanobenzo[f]benzo[4,5]imidazo[1,2-a][1,4]diazocin-5(14H)-one]
< 100 nM | CP(C)(=O)c1ccc(-c2ccc3nc4n(c3c2)[C@@H]2C[C@H]4N(C3CC3)C(=O)c3cccc(OC(F)F)c32)cc1F [Example 48, (1R,11R)-12-cyclopropyl-18-(difluoromethoxy)-5-[4-(dimethylphosphoryl)-3-fluorophenyl]-2,9,12-triazapentacyclo[9.8.1.0^{2,10}.0^{3,8}.0^{14,19}]icosa-3(8),4,6,9,14(19),15,17-heptaen-13-one]
< 100 nM | [2H]C([2H])([2H])N1C(=O)c2cccc(OC(F)F)c2[C@H]2C[C@@H]1c1nc3ccc(-c4cc(F)c(P(C)(C)=O)cc4F)cc3n12 [Example 54, (7R,14R)-1-(difluoromethoxy)-11-(4-(dimethylphosphoryl)-2,5-difluorophenyl)-6-(methyl-d3)-6,7-dihydro-7,14-methanobenzo[f]benzo[4,5]imidazo[1,2-a][1,4]diazocin-5(14H)-one]
< 100 nM | CN1C(=O)c2cccc(OC(F)F)c2[C@H]2C[C@@H]1c1nc3ccc(-c4ccc(OCCP(C)(C)=O)nc4)cc3n12 [Example 39, (1R,11R)-18-(difluoromethoxy)-5-{6-[2-(dimethylphosphoryl)ethoxy]pyridin-3-yl}-12-methyl-2,9,12-triazapentacyclo[9.8.1.0^{2,10}.0^{3,8}.0^{14,19}]icosa-3(8),4,6,9,14(19),15,17-heptaen-13-one]
< 100 nM | CN1C(=O)c2cccc(OC(F)F)c2[C@H]2C[C@@H]1c1nc3ccc(-c4ccc(P5(=O)CCCC5)nc4)cc3n12 [Example 5, (1R,11R)-18-(difluoromethoxy)-12-methyl-5-[6-(1-oxo-1lambda5-phospholan-1-yl)pyridin-3-yl]-2,9,12-triazapentacyclo[9.8.1.0^{2,10}.0^{3,8}.0^{14,19}]icosa-3(8),4,6,9,14(19),15,17-heptaen-13-one]
< 100 nM | [2H]C([2H])([2H])N1C(=O)c2cccc(OC(F)F)c2[C@H]2C[C@@H]1c1nc3ccc(-c4cc(F)c(CP(C)(C)=O)c(F)c4)cc3n12 [Example 69, (7R,14R)-1-(difluoromethoxy)-11-(4-((dimethylphosphoryl)methyl)-3,5-difluorophenyl)-6-(methyl-d3)-6,7-dihydro-7,14-methanobenzo[f]benzo[4,5]imidazo[1,2-a][1,4]diazocin-5(14H)-one]
< 100 nM | CN1C(=O)c2cccc(OC(F)F)c2[C@H]2C[C@@H]1c1nc3ccc(-c4ccc(CP(C)(C)=O)nc4)cc3n12 [Example 22, (1R,11R)-18-(difluoromethoxy)-5-{6-[(dimethylphosphoryl)methyl]pyridin-3-yl}-12-methyl-2,9,12-triazapentacyclo[9.8.1.0^{2,10}.0^{3,8}.0^{14,19}]icosa-3(8),4,6,9,14(19),15,17-heptaen-13-one]
< 100 nM | [2H]C([2H])([2H])N1C(=O)c2cccc(OC(F)F)c2[C@H]2C[C@@H]1c1nc3ccc(-c4cc(F)c(C(C)P(C)(C)=O)c(F)c4)cc3n12 (single isomer, unassigned) [Example 112, (7R,14R)-1-(difluoromethoxy)-11-(4-((S or R)-1-(dimethylphosphoryl)ethyl)-3,5-difluorophenyl)-6-(methyl-d3)-6,7-dihydro-7,14-methanobenzo[f]benzo[4,5]imidazo[1,2-a][1,4]diazocin-5(14H)-one]
1000 to 10000 nM | CP(C)(=O)COc1ncc(-c2ccc3nc4n(c3c2)[C@@H]2C[C@H]4NC(=O)c3cccc(OC(F)F)c32)cn1 [Example 12, (1R,11R)-18-(difluoromethoxy)-5-(2-[(dimethylphosphoryl)methoxy]pyrimidin-5-yl)-2,9,12-triazapentacyclo[9.8.1.0^{2,10}.0^{3,8}.0^{14,19}]icosa-3(8),4,6,9,14(19),15,17-heptaen-13-one]
< 100 nM | CN1C(=O)c2cccc(OC(F)F)c2[C@H]2C[C@@H]1c1nc3cc(F)c(-c4ccc(P(C)(C)=O)c(F)c4)cc3n12 [Example 57, (1R,11R)-18-(difluoromethoxy)-5-[4-(dimethylphosphoryl)-3-fluorophenyl]-6-fluoro-12-methyl-2,9,12-triazapentacyclo[9.8.1.0^{2,10}.0^{3,8}.0^{14,19}]icosa-3(8),4,6,9,14(19),15,17-heptaen-13-one]
< 100 nM | [2H]C([2H])([2H])N1C(=O)c2cccc(OC(F)F)c2[C@H]2C[C@@H]1c1nc3ccc(-c4ccc(P(C)(C)=O)c(F)n4)cc3n12 [Example 115, (7R,14R)-1-(difluoromethoxy)-11-(5-(dimethylphosphoryl)-6-fluoropyridin-2-yl)-6-(methyl-d3)-6,7-dihydro-7,14-methanobenzo[f]benzo[4,5]imidazo[1,2-a][1,4]diazocin-5(14H)-one]
< 100 nM | CP(C)(=O)c1ccc(-c2ccc3nc4n(c3c2)[C@@H]2C[C@H]4NC(=O)c3cccc(OC(F)F)c32)cc1F [Example 43, (1R,11R)-18-(difluoromethoxy)-5-[4-(dimethylphosphoryl)-3-fluorophenyl]-2,9,12-triazapentacyclo[9.8.1.0^{2,10}.0^{3,8}.0^{14,19}]icosa-3(8),4,6,9,14(19),15,17-heptaen-13-one]
< 100 nM | [2H]C([2H])([2H])N1C(=O)c2cccc(OC(F)F)c2[C@H]2C[C@@H]1c1nc3ccc(-c4cc(C)c(P(C)(C)=O)c(F)n4)cc3n12 [Example 132, (7R,14R)-1-(difluoromethoxy)-11-(5-(dimethylphosphoryl)-6-fluoro-4-methylpyridin-2-yl)-6-(methyl-d3)-6,7-dihydro-7,14-methanobenzo[f]benzo[4,5]imidazo[1,2-a][1,4]diazocin-5(14H)-one]
